# Reference: US10912817B2, “Prelyophilized, lyophilized and reconstituted formulations comprising TAT-NR2B9C with d-amino acids, histidine and trehalose” (NoNO Inc., priority 2012, dated 2021)
# No end group written: not given here.
# Experiments:
# Assay type in all cases: physicochemical
# [1] = Solubility study of NA-1 (visual analysis); settings: pH 6.5, 35, 50, 75 and 100 mg/mL, t=0 and t=24 hours
# Protocol: Due to the relatively low Tg temperatures that would likely require a longer lyophilization cycle to dry, we looked at a wider range of standard bulking agents and looked to reduce the fill volume into the container closure system so that there would be a reduced volume of liquid to lyophilize. […] Samples were visually analyzed at 35, 50, 75 and 100 mg/mL. All solutions were clear at t=0 and t=24 hours. […] A wide range of quantities may be required in a vial, but 270 mg would provide a […] dose for a 100 kg patient. Assuming the target reconstitution concentration for patient administration is still 20 mg/mL (but can be from 1 mg/ml to 100 mg/ml), then a 20-mL lyophilization vial containing 270 mg of NA-1 can be used with a reconstitution volume of 13.5 mL. Therefore, optimal volumes of liquid for lyophilization of NA-1 in the vial would be between 2.5 mL and 10 mL.
# [2] = 90 mg/mL NA-1 lyophile accelerated stability (small scale 3); settings: histidine buffer concentrations of 50 and 75 mM; further tests; shortened resuspension times
# Protocol: A small batch of NA-1 drug product was lyophilized to evaluate solid state stability after 1 week storage at 25° C. and 60° C. Two 90 mg/mL NA-1 formulations were compounded (buffer and buffer with trehalose). Samples were evaluated for appearance, reconstitution, water content and purity by HPLC (MSA method) at t=0 and t=1 week.
# Vials were placed on stability at 25° C. and 60° C. and tested after 1 week of storage.
# [3] = Solid state stability of lyophilized 270 mg NA-1 in 20 mM histidine pH 6.5 and 120 mM trehalose; settings: same lyophile; at −20° C.
sequence,measurement,setting,value
YGRKKRRQRRRKLSSIESDV [NA-1],solubility (visual analysis of solutions),[1]; NA-1 in Histidine+Trehalose,clear
same,solubility (visual analysis of solutions),[1]; NA-1 in Histidine,clear
same,stability of NA-1,[2],good stability
same,stability of the formulation,[3],stable
